Test results from patent US12662473B2, “Inhibitors for programmed cell necrosis and preparation method therefor and use thereof” (SHANGHAI INSTITUTE OF ORGANIC CHEMISTRY, CHINESE ACADEMY OF …, priority 2019, dated 2026).
Like-named read-outs stand apart in the source and are kept apart here.

Tests used:
L929 cells = assay: TNF-induced programmed cell necrosis inhibition, Cell Titer-Glo viability; assay type: cell-based, mouse; conditions: read-out: EC50 inhibitory activity on programmed cell necrosis
Source text: (§1) The adopted biological assay protocol was: the programmed necroptosis effect of compounds on TNF-induced in FADD (Fas-Associated Death Domain) deficient Jurkat cells and L929 cells.
(§2) In order to verify the inhibitory effect of the compounds of the present invention on programmed cell necrosis at the cellular level, cell types closely related to the RIP1 pathway, namely FADD deficient Jurkat cells (human peripheral blood leukemia T cell line) and L929 cells, were selected. Two different stimulation methods were used: tumor necrosis factor (TNFα) used alone, or TNFα used in combination with mitochondria-derived cysteine aspartate activator (SMAC). Cells viability was calculated by detecting chemiluminescence values, and the biological activity of the compound for inhibiting programmed cell necrosis can be obtained.
(§3) Methods: FADD deficient Jurkat cells: FADD deficient Jurkat cells (human peripheral blood leukemia T cell line) were cultured in vitro. After growing to the logarithmic growth phase, the cells were collected, centrifuged at 1000 rpm for 5 min, the supernatant was discarded, and the cell concentration was adjusted to 2.5×10^5/mL. Cells were seeded into 384-well plates, 40 μl per well. 5 μL of Smac (50 nM) diluted in cell culture medium and 5 μL of each compound were added to the corresponding wells. After pretreatment at 37° C. for 1 h, 5 μL of TNFα (50 ng/mL) diluted in cell culture medium was added to each well of the stimulation group, and 5 μL of the culture medium was added to the control group. The plate was cultured in a cell incubator (37° C., 5% CO2) for 14 h, and 15 μl of Cell Titer-Glo solution was added to each well, then incubated for 30 min at room temperature, and intracellular ATP level was measured by detecting luminescence. The unstimulated DMSO control wells were taken as 100% cell viability. L929 cells: The L929 cells (mouse fibroblasts) were cultured in vitro, digested and diluted to 6.25×10^4/ml, and the cells were seeded into 384-well plates, 40 μl per well. The plate was placed in a cell incubator (37° C., 5% CO2) for 12 hours. 5 μL of Smac (500 nM) diluted in cell culture medium and 5 μL of each compound were added to the corresponding wells. After pretreatment at 37° C. for 1 h, 5 μL of TNFα (500 ng/mL) diluted in cell culture medium was added to each well of the stimulation group, and 5 μL of the culture medium was added to the control group. After the plate was cultured for 14 h in a cell incubator (37° C., 5% CO2), 15 μl of Cell Titer-Glo solution was added to each well. The plate was incubated at room temperature for 30 min, and intracellular ATP level was measured by detecting luminescence. The unstimulated DMSO control wells were taken as 100% cell viability. EC50 values of the compounds were calculated using Prism Graphpad statistical software.
L929 cells: The L929 cells (mouse fibroblasts) were cultured in vitro, digested and diluted to 6.25×10^4/ml, and the cells were seeded into 384-well plates, 40 μl per well. The plate was placed in a cell incubator (37° C., 5% CO2) for 12 hours. 5 μL of Smac (500 nM) diluted in cell culture medium and 5 μL of each compound were added to the corresponding wells. After pretreatment at 37° C. for 1 h, 5 μL of TNFα (500 ng/mL) diluted in cell culture medium was added to each well of the stimulation group, and 5 μL of the culture medium was added to the control group. After the plate was cultured for 14 h in a cell incubator (37° C., 5% CO2), and 15 μl of Cell Titer-Glo solution was added to each well, then incubated at room temperature for 30 min, and intracellular ATP level was measured by detecting luminescence. The unstimulated DMSO control wells were taken as 100% cell viability.

FADD−/− Jurkat cells = assay: as above; assay type: cell-based
Source text: as §1, §2, §3
FADD deficient Jurkat cells: FADD deficient Jurkat cells (human peripheral blood leukemia T cell line) were cultured in vitro. After growing to the logarithmic growth phase, the cells were collected, centrifuged at 1000 rpm for 5 min, the supernatant was discarded, and the cell concentration was adjusted to 2.5×10^5/mL. Cells were seeded into 384-well plates, 40 μl per well. 5 μL of Smac (50 nM) diluted in cell culture medium and 5 μL of each compound were added to the corresponding wells. After pretreatment at 37° C. for 1 h, 5 μL of TNFα (50 ng/mL) diluted in cell culture medium was added to each well of the stimulation group, and 5 μL of the culture medium was added to the control group. After the plate was cultured in a cell incubator (37° C., 5% CO2) for 14 h, 15 μl of Cell Titer-Glo solution was added to each well. The mixture was incubated for 30 min at room temperature, and intracellular ATP level was measured by detecting luminescence. The unstimulated DMSO control wells were taken as 100% cell viability.

[1] = Mus musculus, L929, 14 h, L929 cells (mouse), TNFa + SM164
[2] = Mus musculus, L929, L929 cells (mouse), TNFa
[3] = Homo sapiens, Jurkat, 14 h, TNFa + SM164, read-out: EC50 inhibitory activity on programmed cell necrosis
[4] = Homo sapiens, Jurkat, TNFa, read-out: EC50 inhibitory activity on programmed cell necrosis
[5] = FADD−/− Jurkat cells (human), TNFa + SM164, read-out: EC50 inhibitory activity on programmed cell necrosis
[6] = FADD−/− Jurkat cells (human), TNFa, read-out: EC50 inhibitory activity on programmed cell necrosis
[7] = Mus musculus, L929, L929 cells (mouse), TNFa + SM164

| SMILES | EC50 (L929 cells; [1]) | EC50 (L929 cells; [2]) | EC50 (FADD−/− Jurkat cells; [3]) | EC50 (FADD−/− Jurkat cells; [4]) | EC50 (L929 cells; L929 cells (mouse), TNFa) | EC50 (FADD−/− Jurkat cells; [5]) | EC50 (FADD−/− Jurkat cells; [6]) | EC50 (L929 cells; L929 cells (mouse), TNFa + SM164) | EC50 (L929 cells; [7]) |
| --- | --- | --- | --- | --- | --- | --- | --- | --- | --- |
| CN(C)C(=O)c1noc([C@@H]2CCCN2C(=O)C(C)(C)Oc2ccc(Cl)cc2)n1 [QY-3-65] | > 10000 nM | > 10000 nM | > 10000 nM | > 10000 nM |  |  |  |  |  |
| Cc1noc([C@@H]2CCCN2C(=O)C(C)(C)Oc2ccc(Cl)cc2Cl)n1 [QY-3-81] | 2720 nM | 704 nM | 1960 nM | 326 nM |  |  |  |  |  |
| Cc1noc([C@@H]2CCCN2C(=O)C(C)(C)N(C)c2ccc(Cl)cc2)n1 [QY-3-86] | > 10000 nM | > 10000 nM | 8680 nM | 13500 nM |  |  |  |  |  |
| Cc1noc([C@@H]2CCCN2C(=O)C(C)(C)Oc2ccc(Cl)cc2C)n1 [QY-3-94] | 5220 nM |  |  |  | 1410 nM | 2960 nM | 516 nM |  |  |
| COc1cc(Cl)ccc1OC(C)(C)C(=O)N1CCC[C@H]1c1nc(C)no1 [QY-3-95] | 1000 nM | 135 nM | 1140 nM | 102 nM |  |  |  |  |  |
| Cc1noc([C@@H]2CCCN2C(=O)C(C)(C)Oc2ccc(Cl)cc2C)n1 [QY-3-96] |  |  |  |  | > 10000 nM | 9220 nM | 2790 nM | > 10000 nM |  |
| CC(C)(Oc1ccc(Cl)cc1F)C(=O)N1CCCC1c1ccccc1 (stereo not drawn) [QY-3-99, 2-(4-Chloro-2-fluorophenoxy)-2-methyl-1-(2-phenylpyrrolidin-1-yl)propan-1-one] |  | 62 nM | 444 nM | 61 nM |  |  |  |  | 244 nM |
| Cc1noc([C@@H]2CCCN2C(=O)C(C)(C)Oc2cc(Cl)c(Cl)cc2Cl)n1 [QY-4-1] | > 10000 nM | 12700 nM | > 10000 nM | 10300 nM |  |  |  |  |  |
| Cc1noc([C@@H]2CCCN2C(=O)C(C)(C)Oc2c(F)cc(Cl)cc2F)n1 [QY-4-2] | 16900 nM | 3950 nM | 7730 nM | 1060 nM |  |  |  |  |  |
| CC(C)(Oc1ccc(Cl)cc1)C(=O)N1CCCC1c1ccc(Cl)cc1 (stereo not drawn) [QY-4-6] | 292 nM | 65 nM | 776 nM | 116 nM |  |  |  |  |  |
| CC(C)(Oc1ccc(Cl)cc1)C(=O)N1CCCC1c1ccc(F)cc1 (stereo not drawn) [QY-4-7] | 652 nM | 111 nM | 825 nM | 126 nM |  |  |  |  |  |
| Cn1nnnc1[C@@H]1CCCN1C(=O)C(C)(C)Oc1ccc(Cl)cc1 [QY-4-11] | > 10000 nM | > 10000 nM | 1710 nM | 61 nM |  |  |  |  |  |
| Cn1nnc([C@@H]2CCCN2C(=O)C(C)(C)Oc2ccc(Cl)cc2)n1 [QY-4-12] | 9530 nM | 1610 nM | 5890 nM | 607 nM |  |  |  |  |  |
| Cc1noc([C@@H]2CCCN2C(=O)C(C)(C)Oc2c(F)cc(F)cc2F)n1 [QY-4-14] | > 10000 nM | 5890 nM | 40600 nM | 18000 nM |  |  |  |  |  |
| Cc1ccccc1C1CCCN1C(=O)C(C)(C)Oc1ccc(Cl)cc1 (stereo not drawn) [QY-4-27] | > 10000 nM | 3670 nM | > 10000 nM | 2900 nM |  |  |  |  |  |
| CC(C)(Oc1ccc(Cl)cc1)C(=O)N1CCCC1c1ccccc1Cl (stereo not drawn) [QY-4-32] | 1650 nM | 520 nM | 2680 nM | 712 nM |  |  |  |  |  |
| CC(C)(Oc1ccc(Cl)cc1)C(=O)N1CCCC1c1cccc(Cl)c1 (stereo not drawn) [QY-4-35] | > 10000 nM | 3700 nM | > 10000 nM | 4090 nM |  |  |  |  |  |

| SMILES | EC50 (L929 cells; [1]) | EC50 (L929 cells; [2]) | EC50 (FADD−/− Jurkat cells; [3]) | EC50 (FADD−/− Jurkat cells; [4]) | EC50 (L929 cells; L929 cells (mouse), TNFa) | EC50 (FADD−/− Jurkat cells; [5]) | EC50 (FADD−/− Jurkat cells; [6]) | EC50 (L929 cells; L929 cells (mouse), TNFa + SM164) | EC50 (L929 cells; [7]) |
| --- | --- | --- | --- | --- | --- | --- | --- | --- | --- |
| CC(C)(Oc1ccc(Cl)cc1)C(=O)N1CCCC1c1cccc(F)c1 (stereo not drawn) [QY-4-39] | 675 nM | 189 nM | 1190 nM | 274 nM |  |  |  |  |  |
| Cc1ccc(C2CCCN2C(=O)C(C)(C)Oc2ccc(Cl)cc2C#N)cc1 (stereo not drawn) [QY-4-66] | 1280 nM | 392 nM | 2190 nM | 544 nM |  |  |  |  |  |
| Cc1ccc(C2CCCN2C(=O)C(C)(C)Oc2ccc(Cl)cc2C(F)(F)F)cc1 (stereo not drawn) [QY-4-67] | 3930 nM | 1380 nM | 5160 nM | 1330 nM |  |  |  |  |  |
| CC(C)(Oc1ccc(Cl)cc1F)C(=O)N1CCCC1c1cccc(C#N)c1 (stereo not drawn) [QY-4-69] | 3630 nM | 650 nM | 9380 nM | 1540 nM |  |  |  |  |  |
| COc1cccc(C2CCCN2C(=O)C(C)(C)Oc2ccc(Cl)cc2F)c1 (stereo not drawn) [QY-4-70] | > 10000 nM | 1780 nM | > 10000 nM | > 10000 nM |  |  |  |  |  |
| Cc1ccc(C2CCCN2C(=O)C(C)(C)Oc2ccc(Cl)cc2F)cc1 (stereo not drawn) [QY-4-75] | 188 nM | 43 nM | 704 nM | 83 nM |  |  |  |  |  |
| CC(C)(Oc1ccc(Cl)cc1F)C(=O)N1CCCC1c1ccccc1F (stereo not drawn) [QY-4-78] | 724 nM | 156 nM | 1100 nM | 205 nM |  |  |  |  |  |
| COc1ccc(C2CCCN2C(=O)C(C)(C)Oc2ccc(Cl)cc2F)cc1 (stereo not drawn) [QY-4-87] | > 10000 nM | 2400 nM | > 10000 nM | 2380 nM |  |  |  |  |  |
| CC(C)(Oc1ccc(Cl)cc1F)C(=O)N1CCCC1c1ccc(C#N)cc1 (stereo not drawn) [QY-4-88] | 3100 nM | 1160 nM | 4000 nM | 746 nM |  |  |  |  |  |
| CCc1ccc(C2CCCN2C(=O)C(C)(C)Oc2ccc(Cl)cc2)cc1 (stereo not drawn) [QY-4-96] | 8130 nM | 2100 nM | 6930 nM | 1460 nM |  |  |  |  |  |
| CCc1ccc(C2CCCN2C(=O)C(C)(C)Oc2ccc(Cl)cc2F)cc1 (stereo not drawn) [QY-4-99] | 9120 nM | 2510 nM | 9200 nM | 1450 nM |  |  |  |  |  |
| CC(C)c1ccc(C2CCCN2C(=O)C(C)(C)Oc2ccc(Cl)cc2F)cc1 (stereo not drawn) [QY-5-1] | > 10000 nM | > 10000 nM | > 10000 nM | > 10000 nM |  |  |  |  |  |
| CN(C)c1ccc(C2CCCN2C(=O)C(C)(C)Oc2ccc(Cl)cc2F)cc1 (stereo not drawn) [QY-5-4] | > 10000 nM | > 10000 nM | > 10000 nM | > 10000 nM |  |  |  |  |  |
| Cc1ccc([C@@H]2CCCN2C(=O)C(C)(C)Oc2ccc(Cl)cc2F)cc1 [QY-5-22, (S)-2-(4-Chloro-2-fluorophenoxy)-2-methyl-1-(2-(p-tolyl)pyrrolidin-1-yl)propan-1-one] |  | 62 nM | 683 nM | 98 nM |  |  |  |  | 262 nM |
| CNC(=O)c1ccc(C2CCCN2C(=O)C(C)(C)Oc2ccc(Cl)cc2F)cc1 (stereo not drawn) [QY-5-79] | > 10000 nM | > 10000 nM | 1060 nM | 9230 nM |  |  |  |  |  |
| CC(C)(Oc1ccc(Cl)cc1F)C(=O)N1CCCC1c1ccc(C(F)(F)F)cc1 (stereo not drawn) [QY-5-83] | > 10000 nM | 8750 nM | 7720 nM | 1290 nM |  |  |  |  |  |
